{"source": "paper PMC1262763", "about": "“Evolutionary selection across the nuclear hormone receptor superfamily with a focus on the NR1I subfamily (vitamin D, pregnane X, and constitutive androstane receptors)” (Nuclear Receptor, 2005)", "key": {"human PXR": {"target": "T1, human PXR (Homo sapiens, UniProt O75469)", "T1 construct": "gene NR1I2; full-length receptor (DBD and LBD), transfected in HepG2-NTCP cells with CYP3A4-PXRE-Luc reporter", "T1 sequence (O75469 1-434)": "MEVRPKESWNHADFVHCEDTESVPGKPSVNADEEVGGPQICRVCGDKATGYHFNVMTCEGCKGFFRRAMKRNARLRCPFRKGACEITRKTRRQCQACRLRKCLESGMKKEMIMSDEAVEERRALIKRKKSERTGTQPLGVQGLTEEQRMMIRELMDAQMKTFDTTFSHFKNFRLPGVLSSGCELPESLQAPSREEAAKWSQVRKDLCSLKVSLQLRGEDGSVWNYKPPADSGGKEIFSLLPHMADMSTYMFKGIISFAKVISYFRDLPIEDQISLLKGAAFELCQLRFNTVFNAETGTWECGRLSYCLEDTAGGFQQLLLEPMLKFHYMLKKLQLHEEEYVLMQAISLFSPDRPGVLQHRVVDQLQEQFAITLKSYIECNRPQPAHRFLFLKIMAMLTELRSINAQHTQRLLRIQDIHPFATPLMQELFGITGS", "experiment": "luciferase reporter transactivation, HepG2-NTCP cells", "format": "cell-based", "details": "concentration-response curve, normalized to […] rifampicin"}, "human VDR": {"target": "human VDR (Homo sapiens, UniProt P11473)", "sequence (P11473 whole entry)": "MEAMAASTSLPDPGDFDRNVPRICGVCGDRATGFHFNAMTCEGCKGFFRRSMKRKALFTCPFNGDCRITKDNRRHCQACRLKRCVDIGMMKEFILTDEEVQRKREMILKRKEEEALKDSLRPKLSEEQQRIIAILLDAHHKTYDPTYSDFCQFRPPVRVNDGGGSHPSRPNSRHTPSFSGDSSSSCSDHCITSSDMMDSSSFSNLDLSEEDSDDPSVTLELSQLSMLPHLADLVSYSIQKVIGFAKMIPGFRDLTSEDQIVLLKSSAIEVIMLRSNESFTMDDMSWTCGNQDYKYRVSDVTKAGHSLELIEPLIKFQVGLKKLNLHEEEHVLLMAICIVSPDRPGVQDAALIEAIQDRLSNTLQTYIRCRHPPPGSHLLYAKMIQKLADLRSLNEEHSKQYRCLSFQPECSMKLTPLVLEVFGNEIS", "details": "maximal activator […] calcitriol"}, "Xenopus laevis BXRα": {"target": "T2, Xenopus laevis BXRα (Xenopus laevis, UniProt Q91839)", "T2 construct": "gene nr1i2.L; LBD only, fused to GAL4 (tk-UAS-Luc reporter), transfected in HepG2-NTCP cells", "T2 sequence (Q91839 141-386 limits assumed)": "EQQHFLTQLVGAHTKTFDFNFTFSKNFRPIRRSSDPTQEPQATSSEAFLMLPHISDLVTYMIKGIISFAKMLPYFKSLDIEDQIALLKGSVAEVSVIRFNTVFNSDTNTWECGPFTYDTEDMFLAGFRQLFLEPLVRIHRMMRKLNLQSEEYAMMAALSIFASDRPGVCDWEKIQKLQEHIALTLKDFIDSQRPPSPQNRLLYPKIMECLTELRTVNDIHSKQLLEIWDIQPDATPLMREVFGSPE", "experiment": "GAL4-LBD luciferase reporter transactivation, HepG2-NTCP cells", "format": "cell-based", "details": "concentration-response curve; normalized to […] n-butyl-p-aminobenzoate"}, "zebrafish PXR": {"target": "T3, zebrafish PXR (Danio rerio, UniProt A5WYG8)", "T3 construct": "gene nr1i2; LBD only, fused to GAL4 (tk-UAS-Luc reporter), transfected in HepG2-NTCP cells", "T3 sequence (A5WYG8 144-430 limits assumed)": "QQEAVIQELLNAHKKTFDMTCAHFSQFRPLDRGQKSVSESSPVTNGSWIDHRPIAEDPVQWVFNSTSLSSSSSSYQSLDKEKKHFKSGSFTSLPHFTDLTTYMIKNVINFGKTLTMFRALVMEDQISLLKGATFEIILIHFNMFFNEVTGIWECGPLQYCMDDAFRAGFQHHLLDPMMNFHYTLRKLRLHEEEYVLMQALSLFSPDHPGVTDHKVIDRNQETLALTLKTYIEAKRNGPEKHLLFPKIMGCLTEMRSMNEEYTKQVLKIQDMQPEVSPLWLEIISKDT", "experiment": "GAL4-LBD luciferase reporter transactivation, HepG2-NTCP cells", "format": "cell-based", "details": "concentration-response curve; normalized to […]α-androstan-3α-ol"}}, "note": "Where a name gives a salt, the structure may show the parent alone.", "data": [{"smiles": "C[C@H](CCC(=O)O)[C@H]1CC[C@H]2[C@@H]3CC[C@@H]4CC(=O)CC[C@]4(C)[C@H]3CC[C@]12C", "note": "[3-ketolithocholic acid]", "values": [{"measurement": "luciferase reporter transactivation, HepG2-NTCP cells", "setting": "human PXR", "result": "the early bile salts petromyzonol sulfate and scymnol sulfate, 3-ketolithocholic acid, and the benzoate analog"}, {"measurement": "efficacy relative to calcitriol", "setting": "human VDR", "result": 15, "unit": "%"}]}, {"smiles": "CCCOC(=O)c1ccc(O)cc1", "note": "[n-propyl-p-hydroxybenzoate]", "values": [{"measurement": "luciferase reporter transactivation, HepG2-NTCP cells", "setting": "human PXR", "result": "the early bile salts petromyzonol sulfate and scymnol sulfate, 3-ketolithocholic acid, and the benzoate analog"}, {"measurement": "GAL4-LBD luciferase reporter transactivation, HepG2-NTCP cells", "setting": "Xenopus laevis BXRα", "result": "n-propyl-p-hydroxybenzoate, which activates BXRα and BXRβ robustly"}, {"measurement": "GAL4-LBD luciferase reporter transactivation, HepG2-NTCP cells", "setting": "zebrafish PXR", "result": "zebrafish PXR is activated by pregnenolone, scymnol sulfate, and the benzoate analog"}]}, {"smiles": "C[C@H](CCCOS(=O)(=O)O)[C@H]1CC[C@H]2[C@@H]3[C@H](O)C[C@H]4C[C@H](O)CC[C@]4(C)[C@H]3C[C@H](O)[C@]12C", "note": "[petromyzonol sulfate]", "values": [{"measurement": "luciferase reporter transactivation, HepG2-NTCP cells", "setting": "human PXR; OATP co-transfected", "result": "the early bile salts petromyzonol sulfate and scymnol sulfate, 3-ketolithocholic acid, and the benzoate analog"}]}, {"smiles": "CC(=O)[C@H]1CC[C@H]2[C@@H]3CC=C4C[C@@H](O)CC[C@]4(C)[C@H]3CC[C@]12C", "note": "[pregnenolone]", "values": [{"measurement": "luciferase reporter transactivation, HepG2-NTCP cells", "setting": "human PXR", "result": "Human PXR is activated by micromolar concentrations of the steroid pregenonolone"}, {"measurement": "GAL4-LBD luciferase reporter transactivation, HepG2-NTCP cells", "setting": "zebrafish PXR", "result": "zebrafish PXR is activated by pregnenolone, scymnol sulfate, and the benzoate analog"}]}]}
